Values of other authors in US9045435B2, “Quinazoline compounds as sodium channel blockers” (Purdue Pharma, L.P., priority 2010, dated 2015).

Assays:
Conditions in all cases: read-out: TTX IC50; cited from earlier work
Nav1.1 = Nav1.1 (Homo sapiens, UniProt P35498)
Nav1.2 = Nav1.2 (Homo sapiens, UniProt Q99250)
Nav1.8 = Nav1.8 (Homo sapiens, UniProt Q9Y5Y9)
Nav1.3 = Nav1.3 (Homo sapiens, UniProt Q9NY46)
Nav1.9 = Nav1.9 (Homo sapiens, UniProt Q9UI33)
Nav1.6 = Nav1.6 (Homo sapiens, UniProt Q9UQD0)
Chain of Nav1.6 (Q9UQD0 whole entry, looked up): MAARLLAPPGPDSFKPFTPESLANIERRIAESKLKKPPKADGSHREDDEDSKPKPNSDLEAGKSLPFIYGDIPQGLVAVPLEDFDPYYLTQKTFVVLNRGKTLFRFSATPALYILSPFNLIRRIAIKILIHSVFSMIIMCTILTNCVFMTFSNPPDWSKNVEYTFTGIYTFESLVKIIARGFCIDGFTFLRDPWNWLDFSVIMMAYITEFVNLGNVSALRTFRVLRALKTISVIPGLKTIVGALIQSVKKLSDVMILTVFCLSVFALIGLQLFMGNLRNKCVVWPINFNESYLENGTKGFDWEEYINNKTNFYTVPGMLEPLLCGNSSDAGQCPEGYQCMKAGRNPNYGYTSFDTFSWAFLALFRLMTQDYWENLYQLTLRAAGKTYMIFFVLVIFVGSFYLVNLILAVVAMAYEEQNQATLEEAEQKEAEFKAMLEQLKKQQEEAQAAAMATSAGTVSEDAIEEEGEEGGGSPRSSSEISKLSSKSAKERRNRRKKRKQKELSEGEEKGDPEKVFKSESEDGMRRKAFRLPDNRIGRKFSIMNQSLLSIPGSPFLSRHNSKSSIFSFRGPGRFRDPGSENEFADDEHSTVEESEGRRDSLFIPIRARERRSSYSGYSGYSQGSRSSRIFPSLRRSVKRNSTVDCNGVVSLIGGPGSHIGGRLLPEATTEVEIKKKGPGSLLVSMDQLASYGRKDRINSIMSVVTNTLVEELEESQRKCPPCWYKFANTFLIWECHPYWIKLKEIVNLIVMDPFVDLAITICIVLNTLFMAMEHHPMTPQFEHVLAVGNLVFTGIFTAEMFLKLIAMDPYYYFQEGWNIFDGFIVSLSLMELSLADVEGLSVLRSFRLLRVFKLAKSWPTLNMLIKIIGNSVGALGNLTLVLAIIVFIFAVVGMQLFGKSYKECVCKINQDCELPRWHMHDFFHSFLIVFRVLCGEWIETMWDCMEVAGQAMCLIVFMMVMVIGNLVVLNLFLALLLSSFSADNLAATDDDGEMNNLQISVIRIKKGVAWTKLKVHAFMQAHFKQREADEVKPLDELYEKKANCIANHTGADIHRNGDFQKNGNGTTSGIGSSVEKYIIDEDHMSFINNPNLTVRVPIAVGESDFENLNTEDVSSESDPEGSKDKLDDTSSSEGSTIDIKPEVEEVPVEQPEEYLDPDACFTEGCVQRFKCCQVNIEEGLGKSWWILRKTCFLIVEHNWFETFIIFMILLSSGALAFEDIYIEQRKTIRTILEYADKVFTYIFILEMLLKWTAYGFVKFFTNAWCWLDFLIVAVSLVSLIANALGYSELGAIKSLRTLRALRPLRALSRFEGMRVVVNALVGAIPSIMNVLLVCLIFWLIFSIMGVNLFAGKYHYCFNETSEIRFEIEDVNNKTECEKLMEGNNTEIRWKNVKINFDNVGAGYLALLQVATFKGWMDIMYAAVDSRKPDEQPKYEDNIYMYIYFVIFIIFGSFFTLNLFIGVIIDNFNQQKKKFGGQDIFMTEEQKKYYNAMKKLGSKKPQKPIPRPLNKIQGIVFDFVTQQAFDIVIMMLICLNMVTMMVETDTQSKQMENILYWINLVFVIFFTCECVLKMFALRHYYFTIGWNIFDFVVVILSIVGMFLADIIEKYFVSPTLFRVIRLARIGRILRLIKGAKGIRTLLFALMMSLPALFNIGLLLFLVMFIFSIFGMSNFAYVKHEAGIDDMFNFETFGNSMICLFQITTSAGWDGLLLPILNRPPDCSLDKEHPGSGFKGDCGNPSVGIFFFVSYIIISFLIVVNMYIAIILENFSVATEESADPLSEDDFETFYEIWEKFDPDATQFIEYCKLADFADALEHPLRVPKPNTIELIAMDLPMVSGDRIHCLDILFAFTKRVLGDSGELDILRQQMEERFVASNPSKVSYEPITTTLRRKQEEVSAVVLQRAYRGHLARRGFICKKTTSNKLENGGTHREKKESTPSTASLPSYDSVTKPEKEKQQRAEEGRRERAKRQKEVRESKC

Chain of Nav1.9 (Q9UI33 whole entry, looked up): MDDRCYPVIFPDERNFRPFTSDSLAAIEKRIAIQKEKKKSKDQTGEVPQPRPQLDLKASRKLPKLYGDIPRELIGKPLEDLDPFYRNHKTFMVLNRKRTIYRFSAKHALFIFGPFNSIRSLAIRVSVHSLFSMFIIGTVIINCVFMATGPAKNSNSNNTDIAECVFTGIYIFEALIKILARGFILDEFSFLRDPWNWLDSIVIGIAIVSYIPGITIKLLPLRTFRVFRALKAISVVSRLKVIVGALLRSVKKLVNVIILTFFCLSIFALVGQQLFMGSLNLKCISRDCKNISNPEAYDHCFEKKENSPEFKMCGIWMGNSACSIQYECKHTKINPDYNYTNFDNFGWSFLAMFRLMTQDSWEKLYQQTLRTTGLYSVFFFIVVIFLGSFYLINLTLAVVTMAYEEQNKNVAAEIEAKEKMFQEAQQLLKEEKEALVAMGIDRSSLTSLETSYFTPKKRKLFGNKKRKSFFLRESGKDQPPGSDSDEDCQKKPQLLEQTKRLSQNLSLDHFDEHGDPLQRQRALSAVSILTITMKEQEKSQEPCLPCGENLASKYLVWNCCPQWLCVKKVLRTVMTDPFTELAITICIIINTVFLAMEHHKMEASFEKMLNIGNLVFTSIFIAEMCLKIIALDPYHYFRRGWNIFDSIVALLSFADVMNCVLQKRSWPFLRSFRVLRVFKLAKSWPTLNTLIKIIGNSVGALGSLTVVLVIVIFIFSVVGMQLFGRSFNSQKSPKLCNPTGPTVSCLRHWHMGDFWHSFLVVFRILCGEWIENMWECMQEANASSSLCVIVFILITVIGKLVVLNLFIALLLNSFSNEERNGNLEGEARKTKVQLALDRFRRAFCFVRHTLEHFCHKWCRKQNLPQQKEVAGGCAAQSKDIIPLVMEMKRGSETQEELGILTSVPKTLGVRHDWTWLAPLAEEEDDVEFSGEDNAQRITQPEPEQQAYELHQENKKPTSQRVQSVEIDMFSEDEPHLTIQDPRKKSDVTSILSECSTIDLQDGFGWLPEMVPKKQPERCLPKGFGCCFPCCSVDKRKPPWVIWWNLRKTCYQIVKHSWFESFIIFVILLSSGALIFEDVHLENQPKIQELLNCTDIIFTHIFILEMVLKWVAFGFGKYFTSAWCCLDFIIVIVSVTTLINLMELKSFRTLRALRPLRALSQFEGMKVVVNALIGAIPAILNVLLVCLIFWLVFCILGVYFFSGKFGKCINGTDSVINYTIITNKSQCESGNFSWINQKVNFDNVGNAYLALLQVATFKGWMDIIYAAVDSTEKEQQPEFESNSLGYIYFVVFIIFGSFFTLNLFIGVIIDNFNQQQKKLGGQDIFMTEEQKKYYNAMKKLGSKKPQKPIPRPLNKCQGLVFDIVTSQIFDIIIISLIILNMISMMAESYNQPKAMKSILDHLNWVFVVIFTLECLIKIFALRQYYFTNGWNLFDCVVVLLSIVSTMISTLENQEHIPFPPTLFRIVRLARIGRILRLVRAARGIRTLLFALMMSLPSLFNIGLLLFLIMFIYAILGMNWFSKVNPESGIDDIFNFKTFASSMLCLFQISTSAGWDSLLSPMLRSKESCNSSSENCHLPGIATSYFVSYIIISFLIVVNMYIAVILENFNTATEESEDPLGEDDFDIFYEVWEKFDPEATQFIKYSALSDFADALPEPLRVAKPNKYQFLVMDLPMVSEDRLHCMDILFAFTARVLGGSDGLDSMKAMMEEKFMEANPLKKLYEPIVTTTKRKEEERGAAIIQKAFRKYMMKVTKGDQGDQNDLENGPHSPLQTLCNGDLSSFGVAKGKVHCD

Structure (SMILES): NC1=N[C@H](O)[C@H]2[C@H]3O[C@]4(O)O[C@@H]([C@@H](O)[C@@]2(N1)[C@@H]4O)[C@]3(O)CO [TTX, tetrodotoxin]
- IC50 (Nav1.1): 10 nM
- IC50 (Nav1.2): 10 nM
- IC50 (Nav1.8): 50 µM
- IC50 (Nav1.3): 15 nM
- IC50 (Nav1.9): 1000 nM
- IC50 (Nav1.6): 6 nM
